Legend:
Type in all cases: in vivo
[1] = test system: corn seed lot "Hughes High" (commercial hybrid); assay: Dose-response of corn soil emergence to ABA seed treatment in calendar and thermal time
Description: Because corn germination and phenology is driven by heat, the corn seed industry uses thermal time (Growing-Degree-Days, or GDD) rather than calendar time to measure and predict flowering. The standard formula for calculating the GDD contribution from one calendar day for corn is: where “Max temp” is either the high temperature for the day or 86, whichever is lower, and “Min temp” is either the low temperature for the day in F or 50, whichever is higher. In growth chambers at constant temperature the calculation is trivial. For example, in our nominally 25° C. chamber, the soil temperature is actually about 26.1° C. (79 F) due to the heat contribution of the light. This time corresponds to 29 GDD. […] The purpose of this experiment was to evaluate the dose response of corn seed emergence after seed treatment with ABA in terms of thermal time. ABA was applied at 0, 1, 2, 3, 4, 5, 10, 15, 20 and 25 g/cwt as the free acid in experimental seed treatment slurries as described under Example 1. The seed lot was designated as “Hughes High” and was a commercial hybrid. The seed was planted in soil in plastic boxes as described under Example 2, and incubated at 25° C. and 18° C. as described under Example 2. Emergence was counted every 1-2 days and the data reduced as described under Example 2. The daily heat unit contribution was calculated for the two chambers, and the responses examined in cumulative thermal time as well as calendar time.

[2] = test system: Hughes 1883 hybrid corn seed; assay: Soil germination/emergence of corn seed treated with different forms of ABA in slurry; settings: for delay: treatments with ABA vs control; for Final emergence / QR / T50: 25 g/cwt as free acid
Description: Three forms of ABA were evaluated in this experiment 1) free acid, 2) ammonium salt, and 3) sodium salt. The cation is referred to as the “counter-ion” below. […] The treatments were made up in 3 ml samples of experimental aqueous seed treatment slurry. All of the seed treatment slurry samples contained CF-Clear film-forming agent and Colorcoat Red (Becker Underwood), each at 1 oz/cwt, and 0.167 oz/cwt Maxim XL fungicide (Syngenta). The slurry application volume was 20 oz/cwt (cwt=100 lbs of seed).
One hundred gram samples of Hughes 1883 hybrid corn seed were treated with the experimental slurries using a Hege 11 seed treater with a six-inch bowl.
The seed was planted in plastic boxes containing 1 kg of typical agricultural silt loam. Fifty seeds were planted 3 cm deep in each plastic box, and the soil in the box was adjusted to 21% soil moisture (wet-weight basis). Two replications of the experiment were incubated under constant light in a 25° C. chamber and two replications incubated under constant light in an 18° C. chamber. The boxes were watered up to the correct weight daily, and checked for emergence. Daily counts of seedlings were continued until emergence ceased. The final count of emerged seedlings was expressed as a percentage of the 50 seeds planted (GERM).
The daily counts were converted to proportions of the final germination of the box, and a Gompertz curve was fitted to the data from each box using SAS Proc NLIN. From the parameters of the model, median germination time (T50) and quartile range (QR) were estimated for each box. Analysis of variance was performed and means calculated for each of the three responses (GERM, T50, QR).

[3] = test system: corn inbred lines B91 and B95; assay: Field emergence and anthesis of inbred corn seed treated with ABA
Description: Seed of inbred lines B91 and B95 was obtained from Iowa State University. These inbreds are from the BSCB1 heterotic group, and are representative of many male parents used in hybrid corn seed production. ABA in the form of the ammonium salt was applied at rates of 0, 25, 50 and 100 g/cwt (as free acid). Application was performed as described under Example 2 above, except the CF-Clear and Color Coat Red (Becker Underwood) were applied at 0.5 oz/cwt, and Maxim XL (Syngenta) was applied at 0.334 oz/cwt, using a slurry rate of 15 oz/cwt. The seed samples were mechanically planted in small plots of one five hundredth acre each at Woodstock, Ill., Stoughton, Wis. and Winnebago, Ill. Three plots of each treatment were planted at each location. Standard cultural practices for corn production were used. The plots were examined daily, and seedling emergence counted in each plot every day or two during the month after planting. Data were analyzed as described under Example 2 above.

[4] = ABA free acid 20 g/cwt, 25° C. soil test
[5] = Stoughton, inbred B91, ABA (ammonium salt) 25 g/cwt as free acid
[6] = Stoughton, inbred B91, ABA (ammonium salt) 50 g/cwt as free acid
[7] = Stoughton, inbred B91, ABA (ammonium salt) 100 g/cwt as free acid
[8] = Stoughton, inbred B95, ABA (ammonium salt) 25 g/cwt as free acid
[9] = Stoughton, inbred B95, ABA (ammonium salt) 50 g/cwt as free acid
[10] = Stoughton, inbred B95, ABA (ammonium salt) 100 g/cwt as free acid
[11] = Winnebago, inbred B91, ABA (ammonium salt) 25 g/cwt as free acid
[12] = Winnebago, inbred B91, ABA (ammonium salt) 50 g/cwt as free acid
[13] = Winnebago, inbred B91, ABA (ammonium salt) 100 g/cwt as free acid
[14] = Winnebago, inbred B95, ABA (ammonium salt) 25 g/cwt as free acid
[15] = Winnebago, inbred B95, ABA (ammonium salt) 50 g/cwt as free acid
[16] = Winnebago, inbred B95, ABA (ammonium salt) 100 g/cwt as free acid
[17] = Woodstock, inbred B91, ABA (ammonium salt) 25 g/cwt as free acid
[18] = Woodstock, inbred B91, ABA (ammonium salt) 50 g/cwt as free acid
[19] = Woodstock, inbred B91, ABA (ammonium salt) 100 g/cwt as free acid
[20] = Woodstock, inbred B95, ABA (ammonium salt) 25 g/cwt as free acid
[21] = Woodstock, inbred B95, ABA (ammonium salt) 50 g/cwt as free acid
[22] = Woodstock, inbred B95, ABA (ammonium salt) 100 g/cwt as free acid

With CC1=CC(=O)CC(C)(C)[C@@]1(O)/C=C/C(C)=C\C(=O)O [ABA, S-(+)-abscisic acid] the “effect on emergence of corn seedlings” value ([1]; ABA free acid 1-25 g/cwt, 18 and 25° C.) was “delayed emergence progressively as the dose was increased”, the Emergence ([1]; ABA free acid 1 g/cwt, 18° C. soil test) was 94.2% and the Emergence ([1]; ABA free acid 1 g/cwt, 25° C. soil test) was 97.1%. It also gave an Emergence ([1]; ABA free acid 2 g/cwt, 18° C. soil test) of 91.2%, an Emergence ([1]; ABA free acid 2 g/cwt, 25° C. soil test) of 95.5% and an Emergence ([1]; ABA free acid 3 g/cwt, 18° C. soil test) of 94.0%. For the same compound, the Emergence ([1]; ABA free acid 3 g/cwt, 25° C. soil test) was 92.1%, the Emergence ([1]; ABA free acid 4 g/cwt, 18° C. soil test) was 89.2% and the Emergence ([1]; ABA free acid 4 g/cwt, 25° C. soil test) was 96.3%. The Emergence ([1]; ABA free acid 5 g/cwt, 18° C. soil test) was 92.0%, the Emergence ([1]; ABA free acid 5 g/cwt, 25° C. soil test) was 95.0% and the Emergence ([1]; ABA free acid 10 g/cwt, 18° C. soil test) was 94.0%. The Emergence ([1]; ABA free acid 10 g/cwt, 25° C. soil test) was 89.0%, the Emergence ([1]; ABA free acid 15 g/cwt, 18° C. soil test) was 92.1% and the Emergence ([1]; ABA free acid 15 g/cwt, 25° C. soil test) was 96.3%. For the same compound, the Emergence ([1]; ABA free acid 20 g/cwt, 18° C. soil test) was 90.1%, the Emergence [1, 4] was 95.0% and the delay [1, 4] was 3.4 days. The Emergence ([1]; ABA free acid 25 g/cwt, 18° C. soil test) was 88.1%, the Emergence ([1]; ABA free acid 25 g/cwt, 25° C. soil test) was 97.1% and the “delay as a fraction of the germination time of the control at the same temperature” value ([2]; 18 and 25° C.) was “roughly doubling the time to emergence”. The delay ([2]; 18° C.) was 5.8 days, the Final emergence ([2]; soil 18° C.) was 97% and the QR ([2]; soil 18° C.) was 2.96 days. The T50 ([2]; soil 18° C.) was 11.4 days, the Final emergence ([2]; soil 25° C.) was 96% and the QR ([2]; soil 25° C.) was 1.32 days. For the same compound, the T50 ([2]; soil 25° C.) was 7.7 days, the delay ([2]; 25° C.) was 4.4 days and the median-time-to-germination ([2]; regardless of counter-ion, 18 and 25° C., p<0.0001) was “increased”. The Quartile range ([2]; regardless of counter-ion, 18 and 25° C., p<0.0002) was “increased”, the effect on anthesis ([3]; Stoughton and Winnebago, ABA 25-100 g/cwt) was “progressively delayed anthesis” and the Final emergence [3, 5] was 96.2%. The “Median time to anthesis” value [3, 5] was 79.2 days, the “Median time to emergence” value [3, 5] was 11.9 days and the Final emergence [3, 6] was 95.0%. The “Median time to anthesis” value [3, 6] was 80.1 days, the “Median time to emergence” value [3, 6] was 12.6 days and the Final emergence [3, 7] was 94.3%. For the same compound, the “Median time to anthesis” value [3, 7] was 79.8 days, the “Median time to emergence” value [3, 7] was 14.1 days and the Final emergence [3, 8] was 98.1%. The “Median time to anthesis” value [3, 8] was 81.8 days, the “Median time to emergence” value [3, 8] was 12.5 days and the Final emergence [3, 9] was 98.1%. For the same compound, the “Median time to anthesis” value [3, 9] was 82.4 days, the “Median time to emergence” value [3, 9] was 14.1 days and the Final emergence [3, 10] was 99.0%. The “Median time to anthesis” value [3, 10] was 81.3 days, the “Median time to emergence” value [3, 10] was 14.3 days and the Final emergence [3, 11] was 98.5%. For the same compound, the “Median time to anthesis” value [3, 11] was 74.4 days, the “Median time to emergence” value [3, 11] was 8.8 days and the Final emergence [3, 12] was 96.4%. For the same compound, the “Median time to anthesis” value [3, 12] was 75.1 days, the “Median time to emergence” value [3, 12] was 9.7 days and the Final emergence [3, 13] was 94.4%. For the same compound, the “Median time to anthesis” value [3, 13] was 76.4 days, the “Median time to emergence” value [3, 13] was 11.5 days and the Final emergence [3, 14] was 94.8%. For the same compound, the “Median time to anthesis” value [3, 14] was 79.8 days, the “Median time to emergence” value [3, 14] was 10.3 days and the Final emergence [3, 15] was 95.0%. For the same compound, the “Median time to anthesis” value [3, 15] was 79.5 days, the “Median time to emergence” value [3, 15] was 11.3 days and the Final emergence [3, 16] was 89.8%. The “Median time to anthesis” value [3, 16] was 80.8 days, the “Median time to emergence” value [3, 16] was 12.7 days and the Final emergence [3, 17] was 99.0%. For the same compound, the “Median time to emergence” value [3, 17] was 11.4 days, the Final emergence [3, 18] was 94.5% and the “Median time to emergence” value [3, 18] was 13.7 days. The Final emergence [3, 19] was 92.0%, the “Median time to emergence” value [3, 19] was 14.3 days and the Final emergence [3, 20] was 94.8%. For the same compound, the “Median time to emergence” value [3, 20] was 13.8 days, the Final emergence [3, 21] was 96.8% and the “Median time to emergence” value [3, 21] was 15.3 days. For the same compound, the Final emergence [3, 22] was 89.6%, the “Median time to emergence” value [3, 22] was 18.9 days and the “effect on final stand” value ([3]; any of the locations) was “did not significantly reduce final stand”. For the same compound, the “effect on emergence from the soil” value ([3]; every location, ABA 25-100 g/cwt) was “progressive and significant delay in emergence”.
